Results published in ChEMBL document CHEMBL2073963, “Transport of methotrexate (MTX) and folates by multidrug resistance protein (MRP) 3 and MRP1: effect of polyglutamylation on MTX transport” (Cancer Res, 2001).
Blank lines part the entries; values can stand above or below the compound they belong to.

Tests used:
Format in all cases: functional, cell membranes
Design in all cases: scale not given: the % may be the effect or the level left
[1] = target: Multidrug resistance associated protein (Homo sapiens) (UniProt Q96QA9); test: TP_TRANSPORTER: inhibition of MTX uptake (MTX: 1 uM, DOX;G: 300 uM) in membrane vesicles from MRP3-expressing HEK293 cells; settings: Membrane vesicle
Multidrug resistance associated protein (Homo sapiens), sequence (Q96QA9 as listed by the source): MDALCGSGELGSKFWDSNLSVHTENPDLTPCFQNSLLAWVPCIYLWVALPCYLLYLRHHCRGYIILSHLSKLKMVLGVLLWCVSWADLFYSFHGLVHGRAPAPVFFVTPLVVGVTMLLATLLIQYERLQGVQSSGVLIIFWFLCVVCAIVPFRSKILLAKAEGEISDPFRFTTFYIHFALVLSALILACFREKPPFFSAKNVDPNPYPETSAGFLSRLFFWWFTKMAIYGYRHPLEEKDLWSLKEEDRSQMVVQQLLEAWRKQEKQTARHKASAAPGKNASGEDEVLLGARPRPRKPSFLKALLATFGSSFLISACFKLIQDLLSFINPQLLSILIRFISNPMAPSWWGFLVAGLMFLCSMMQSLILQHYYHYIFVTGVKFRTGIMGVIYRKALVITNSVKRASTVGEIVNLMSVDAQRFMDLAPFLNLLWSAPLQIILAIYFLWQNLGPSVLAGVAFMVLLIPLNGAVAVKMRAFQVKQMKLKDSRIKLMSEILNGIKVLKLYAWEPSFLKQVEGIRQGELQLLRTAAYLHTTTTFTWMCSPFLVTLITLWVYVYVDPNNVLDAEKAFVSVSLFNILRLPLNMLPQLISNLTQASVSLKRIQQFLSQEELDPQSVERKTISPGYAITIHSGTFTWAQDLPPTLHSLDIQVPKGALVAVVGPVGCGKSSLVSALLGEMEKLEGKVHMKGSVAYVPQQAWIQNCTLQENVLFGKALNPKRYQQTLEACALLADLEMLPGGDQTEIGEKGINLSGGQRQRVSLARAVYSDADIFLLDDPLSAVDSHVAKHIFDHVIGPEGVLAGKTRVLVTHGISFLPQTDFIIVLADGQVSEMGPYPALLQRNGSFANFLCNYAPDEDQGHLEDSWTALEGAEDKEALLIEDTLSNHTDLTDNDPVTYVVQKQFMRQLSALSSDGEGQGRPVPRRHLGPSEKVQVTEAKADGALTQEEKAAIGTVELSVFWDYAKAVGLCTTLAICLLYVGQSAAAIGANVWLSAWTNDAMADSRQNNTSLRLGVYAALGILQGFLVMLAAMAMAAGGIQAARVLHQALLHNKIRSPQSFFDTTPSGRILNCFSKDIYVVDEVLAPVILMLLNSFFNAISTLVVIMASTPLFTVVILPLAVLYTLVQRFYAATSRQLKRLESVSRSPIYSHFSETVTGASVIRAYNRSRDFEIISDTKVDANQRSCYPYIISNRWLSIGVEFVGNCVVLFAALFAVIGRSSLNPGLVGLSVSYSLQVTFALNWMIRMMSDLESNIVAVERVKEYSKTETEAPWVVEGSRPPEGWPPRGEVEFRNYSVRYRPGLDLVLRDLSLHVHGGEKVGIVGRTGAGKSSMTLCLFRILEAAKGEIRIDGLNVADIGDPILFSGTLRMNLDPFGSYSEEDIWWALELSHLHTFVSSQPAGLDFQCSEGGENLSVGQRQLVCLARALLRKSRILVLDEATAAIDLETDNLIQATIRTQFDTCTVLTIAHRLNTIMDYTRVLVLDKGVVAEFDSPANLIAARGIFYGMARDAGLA

[2] = target: Multidrug resistance associated protein (Homo sapiens) (UniProt Q96QA9); test: TP_TRANSPORTER: inhibition of MTX uptake (MTX: 1 uM, VP-16: 300 uM) in membrane vesicles from MRP3-expressing HEK293 cells; settings: Membrane vesicle
[3] = target: Multidrug resistance associated protein (Homo sapiens) (UniProt Q96QA9); test: TP_TRANSPORTER: inhibition of MTX uptake (MTX: 1 uM, PAK-104P: 100 uM) in membrane vesicles from MRP3-expressing HEK293 cells; settings: Membrane vesicle
[4] = target: Multidrug resistance associated protein (Homo sapiens) (UniProt Q96QA9); test: TP_TRANSPORTER: inhibition of MTX uptake (MTX: 1 uM, AG-A: 1000 uM) in membrane vesicles from MRP3-expressing HEK293 cells; settings: Membrane vesicle
[5] = target: Multidrug resistance associated protein (Homo sapiens) (UniProt Q96QA9); test: TP_TRANSPORTER: inhibition of MTX uptake (MTX: 1 uM, PSC-833: 10 uM) in membrane vesicles from MRP3-expressing HEK293 cells; settings: Membrane vesicle
[6] = target: Multidrug resistance associated protein (Homo sapiens) (UniProt Q96QA9); test: TP_TRANSPORTER: inhibition of MTX uptake (MTX: 1 uM, MK571: 100 uM) in membrane vesicles from MRP3-expressing HEK293 cells; settings: Membrane vesicle
[7] = target: Multidrug resistance associated protein (Homo sapiens) (UniProt Q96QA9); test: TP_TRANSPORTER: inhibition of MTX uptake (MTX: 1 uM, GC: 300 uM) in membrane vesicles from MRP3-expressing HEK293 cells; settings: Membrane vesicle
[8] = target: Multidrug resistance associated protein (Homo sapiens) (UniProt Q96QA9); test: TP_TRANSPORTER: inhibition of MTX uptake (MTX: 1 uM, Vincristine: 300 uM) in membrane vesicle from MRP3-expessing HEK 293 cell; settings: HEK293
[9] = target: Multidrug resistance associated protein (Homo sapiens) (UniProt Q96QA9); test: TP_TRANSPORTER: inhibition of MTX uptake (MTX: 1 uM, E217betaG: 100 uM) in membrane vesicles from MRP3-expressing HEK293 cells; settings: Membrane vesicle

Compound: COc1cc([C@@H]2c3cc4c(cc3[C@@H](O[C@@H]3O[C@@H]5CO[C@@H](C)O[C@H]5[C@H](O)[C@H]3O)[C@H]3COC(=O)[C@H]23)OCO4)cc(OC)c1O
Activity [2]: 3.47%

Compound: CC(=O)O[C@@H]1[C@@H]2[C@@H](OC(C)=O)C=C3[C@H]([C@H](O)C[C@]4(C)[C@@H]([C@H](C)[C@H](O)CCC(C)C)CC[C@@H]34)[C@@]2(C)CC[C@@H]1OC(C)=O
Activity [4]: 56.9%

Compound: C/C=C/C[C@@H](C)C(=O)[C@H]1C(=O)N[C@@H](C(C)C)C(=O)N(C)CC(=O)N(C)[C@@H](CC(C)C)C(=O)N[C@@H](C(C)C)C(=O)N(C)[C@@H](CC(C)C)C(=O)N[C@@H](C)C(=O)N[C@H](C)C(=O)N(C)[C@@H](CC(C)C)C(=O)N(C)[C@@H](CC(C)C)C(=O)N(C)[C@@H](C(C)C)C(=O)N1C
Activity [5]: 61.4%

Compound: C[C@H](CCC(=O)NCC(=O)O)[C@H]1CC[C@H]2[C@@H]3[C@H](O)C[C@@H]4C[C@H](O)CC[C@]4(C)[C@H]3C[C@H](O)[C@]12C
Activity [7]: 10.4%

Compound: C[C@]12CC[C@@H]3c4ccc(O)cc4CC[C@H]3[C@@H]1CC[C@@H]2O[C@@H]1O[C@H](C(=O)O)[C@@H](O)[C@H](O)[C@H]1O
Activity [9]: 8.27%

Second part, the compound after the results:

Activity [1]: 80%
Compound: COc1cccc2c1C(=O)c1c(O)c3c(c(O)c1C2=O)C[C@@](O)(C(=O)CO)C[C@@H]3O[C@H]1C[C@H](N)[C@H](O)[C@H](C)O1

Activity [3]: 3%
Compound: Cc1nc(C)c(P2(=O)O[C@H](C)C[C@@H](C)O2)c(-c2cccc([N+](=O)[O-])c2)c1C(=O)OCCN1CCN(C(c2ccccc2)c2ccccc2)CC1 (some centres undefined)

Activity [6]: 2.3%
Compound: CN(C)C(=O)CCSC(SCCC(=O)O)c1cccc(/C=C/c2ccc3ccc(Cl)cc3n2)c1 (centres undefined)

Activity [8]: 39.1%
Compound: CC[C@]1(O)C[C@H]2CN(CCc3c([nH]c4ccccc34)[C@@](C(=O)OC)(c3cc4c(cc3OC)N(C=O)[C@H]3[C@@](O)(C(=O)OC)[C@H](OC(C)=O)[C@]5(CC)C=CCN6CC[C@]43[C@@H]65)C2)C1
